Measured values reported in patent US7276347B2 (priority 2004, dated 2007).

Columns and labels:
[1] = system: monoclonal antibody to HCY Oxime-KLH (example 4b); assay type: binding, mice
[2] = system: antibodies to HCY Oxime-BTG (example 4a); assay type: binding, mice

| SMILES | % Cross-Reactivity [1] [%] | IC 50 [1] | % Cross-Reactivity [2] [%] | IC 50 [2] |
| --- | --- | --- | --- | --- |
| O=C(O)CCCc1ccc(N(CCCl)CCCl)cc1 [Chlorambucil, chlorambucil] | <0.1 | >100,000 ng/ml | <0.3 | >10,000 ng/ml |
| N[C@@H](Cc1ccc(N(CCCl)CCCl)cc1)C(=O)O [Melphalan, melphalan] | <0.1 | >100,000 ng/ml | <0.3 | >10,000 ng/ml |
| O=P1(N(CCCl)CCCl)NCCCO1 (stereo not drawn) [cyclophosphamide] | <0.1 | >100,000 ng/ml | <0.3 | >10,000 ng/ml |
